Results on three molecules are retold here after paper PMC3929239 (Bioorganic & medicinal chemistry letters, 2011).

In data set [1] the target is mTOR (Homo sapiens, UniProt P42345). Kind of data set: Ambit KINOMEscan. It is filed as binding.
Data set [2] concerns the target T1, P110δ/P85α (Homo sapiens, UniProt O00329).
T1 sequence (O00329 1-1044): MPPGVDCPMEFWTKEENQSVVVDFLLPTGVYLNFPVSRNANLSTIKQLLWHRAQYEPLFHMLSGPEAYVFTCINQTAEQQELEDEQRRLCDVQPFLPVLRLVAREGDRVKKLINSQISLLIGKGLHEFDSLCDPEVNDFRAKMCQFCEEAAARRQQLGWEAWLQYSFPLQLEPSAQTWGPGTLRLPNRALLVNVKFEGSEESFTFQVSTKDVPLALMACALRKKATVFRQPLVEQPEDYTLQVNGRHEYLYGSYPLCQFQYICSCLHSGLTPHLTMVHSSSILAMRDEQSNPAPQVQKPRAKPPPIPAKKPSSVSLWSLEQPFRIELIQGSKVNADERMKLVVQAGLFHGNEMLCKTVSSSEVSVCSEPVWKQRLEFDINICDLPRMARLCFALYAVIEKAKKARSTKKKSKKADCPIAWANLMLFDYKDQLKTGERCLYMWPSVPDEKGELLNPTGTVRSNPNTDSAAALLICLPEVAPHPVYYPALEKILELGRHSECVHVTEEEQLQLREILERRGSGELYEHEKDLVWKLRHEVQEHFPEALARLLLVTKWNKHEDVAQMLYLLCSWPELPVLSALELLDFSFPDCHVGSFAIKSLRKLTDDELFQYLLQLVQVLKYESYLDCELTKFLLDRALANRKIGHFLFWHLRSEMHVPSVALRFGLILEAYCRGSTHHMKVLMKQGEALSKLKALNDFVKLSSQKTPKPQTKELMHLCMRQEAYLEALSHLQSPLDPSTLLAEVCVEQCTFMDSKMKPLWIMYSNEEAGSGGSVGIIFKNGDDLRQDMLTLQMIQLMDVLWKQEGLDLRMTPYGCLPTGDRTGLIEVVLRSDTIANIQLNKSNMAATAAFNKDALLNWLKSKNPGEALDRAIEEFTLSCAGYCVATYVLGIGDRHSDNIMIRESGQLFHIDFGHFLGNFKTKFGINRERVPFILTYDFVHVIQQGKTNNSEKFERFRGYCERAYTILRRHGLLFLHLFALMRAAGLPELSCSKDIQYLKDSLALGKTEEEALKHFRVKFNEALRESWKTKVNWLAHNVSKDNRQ
Kind of data set: Ambit KINOMEscan. It is filed as binding.

For data set [3], the system named is downstream targets of mTOR, S6K, and Akt. The data set can be described thus: In vivo pharmacodynamic study. The note with it: liver and lung tissues, after 6h, 20 mg/kg.
Data set [4] has as its target CYP3A4 (Homo sapiens, UniProt P08684). Kind of data set: Single point CYP450 inhibition test. It is filed as in vitro ADME.
Data set [5] concerns the target P110γ (Homo sapiens, UniProt P48736). Kind of data set: Ambit KINOMEscan. It counts as binding.
For data set [6], the target named is P110α/P85α (Homo sapiens, UniProt P42336). The data set can be described thus: Ambit KINOMEscan. It is filed as binding.
In data set [7] the target is CYP2D6 (Homo sapiens, UniProt P10635). Kind of data set: Single point CYP450 inhibition test. As to conditions: for inhibition at 10 µM: human, CYP2D6 % inhibition. It is filed as in vitro ADME.
Data set [8] has as its target PI3K-C2β (Homo sapiens, UniProt O00750). The data set can be described thus: Ambit KINOMEscan. It counts as binding.
Data set [9] concerns 450 kinases. As to conditions: 450 kinases profiled by KINOMEscan; cited from earlier work.
Data set [10] relates to U87-MG mouse xenograft. The note with it: cited from earlier work.

CYP2D6, sequence (P10635 whole entry): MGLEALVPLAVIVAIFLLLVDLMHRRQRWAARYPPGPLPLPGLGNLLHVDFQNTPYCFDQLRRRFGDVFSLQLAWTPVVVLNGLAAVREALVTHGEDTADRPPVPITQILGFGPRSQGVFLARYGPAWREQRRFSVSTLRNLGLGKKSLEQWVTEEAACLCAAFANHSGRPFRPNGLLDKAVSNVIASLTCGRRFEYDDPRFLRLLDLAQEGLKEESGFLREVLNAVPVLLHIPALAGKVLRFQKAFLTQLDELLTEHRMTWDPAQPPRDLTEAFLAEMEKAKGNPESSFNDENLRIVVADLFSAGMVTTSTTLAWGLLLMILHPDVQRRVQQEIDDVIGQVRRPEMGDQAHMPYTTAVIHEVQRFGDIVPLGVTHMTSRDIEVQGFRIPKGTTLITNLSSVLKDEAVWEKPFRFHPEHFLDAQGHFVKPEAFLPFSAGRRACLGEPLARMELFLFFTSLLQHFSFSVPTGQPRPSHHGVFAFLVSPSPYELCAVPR
PI3K-C2β, sequence (O00750 whole entry): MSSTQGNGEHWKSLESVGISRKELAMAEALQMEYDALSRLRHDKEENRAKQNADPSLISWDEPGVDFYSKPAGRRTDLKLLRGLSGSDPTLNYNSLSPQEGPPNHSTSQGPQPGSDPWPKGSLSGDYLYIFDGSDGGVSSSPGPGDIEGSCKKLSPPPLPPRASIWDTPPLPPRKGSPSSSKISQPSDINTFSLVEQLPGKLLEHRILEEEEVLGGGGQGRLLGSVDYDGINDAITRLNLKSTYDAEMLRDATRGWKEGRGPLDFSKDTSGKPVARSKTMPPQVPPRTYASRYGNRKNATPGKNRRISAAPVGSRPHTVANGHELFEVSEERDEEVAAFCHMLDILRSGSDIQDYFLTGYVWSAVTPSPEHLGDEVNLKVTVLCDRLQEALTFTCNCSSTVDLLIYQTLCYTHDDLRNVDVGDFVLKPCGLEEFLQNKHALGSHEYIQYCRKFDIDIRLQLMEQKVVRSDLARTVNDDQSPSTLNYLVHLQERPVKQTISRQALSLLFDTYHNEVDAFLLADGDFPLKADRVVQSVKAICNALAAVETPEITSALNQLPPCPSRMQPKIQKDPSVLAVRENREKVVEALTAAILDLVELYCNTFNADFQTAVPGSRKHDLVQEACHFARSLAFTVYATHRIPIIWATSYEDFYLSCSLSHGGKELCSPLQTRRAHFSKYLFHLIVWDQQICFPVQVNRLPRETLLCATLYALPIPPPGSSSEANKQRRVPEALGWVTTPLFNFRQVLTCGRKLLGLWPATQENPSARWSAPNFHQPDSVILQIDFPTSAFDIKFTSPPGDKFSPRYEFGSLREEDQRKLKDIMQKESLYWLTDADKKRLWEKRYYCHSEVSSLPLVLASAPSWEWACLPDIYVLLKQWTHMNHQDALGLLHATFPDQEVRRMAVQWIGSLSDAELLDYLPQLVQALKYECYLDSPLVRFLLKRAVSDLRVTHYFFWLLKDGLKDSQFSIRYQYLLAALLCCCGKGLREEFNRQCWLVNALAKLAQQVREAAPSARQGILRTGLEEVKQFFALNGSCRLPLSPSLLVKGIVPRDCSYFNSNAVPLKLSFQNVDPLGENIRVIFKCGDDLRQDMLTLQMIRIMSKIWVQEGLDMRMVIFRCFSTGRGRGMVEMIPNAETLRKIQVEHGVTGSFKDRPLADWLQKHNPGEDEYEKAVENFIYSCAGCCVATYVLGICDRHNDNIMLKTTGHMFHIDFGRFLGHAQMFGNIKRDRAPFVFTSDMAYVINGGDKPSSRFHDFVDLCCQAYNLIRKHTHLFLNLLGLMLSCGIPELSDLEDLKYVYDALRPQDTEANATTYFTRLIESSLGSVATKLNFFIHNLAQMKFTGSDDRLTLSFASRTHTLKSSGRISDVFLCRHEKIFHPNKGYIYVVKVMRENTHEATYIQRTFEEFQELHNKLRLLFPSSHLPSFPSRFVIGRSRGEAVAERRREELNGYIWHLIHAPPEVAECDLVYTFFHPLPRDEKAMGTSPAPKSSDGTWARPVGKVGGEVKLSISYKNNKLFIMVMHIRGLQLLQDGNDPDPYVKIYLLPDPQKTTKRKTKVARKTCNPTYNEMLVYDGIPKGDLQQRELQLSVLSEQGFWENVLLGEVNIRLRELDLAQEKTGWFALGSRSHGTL
P110α/P85α, sequence (P42336 whole entry): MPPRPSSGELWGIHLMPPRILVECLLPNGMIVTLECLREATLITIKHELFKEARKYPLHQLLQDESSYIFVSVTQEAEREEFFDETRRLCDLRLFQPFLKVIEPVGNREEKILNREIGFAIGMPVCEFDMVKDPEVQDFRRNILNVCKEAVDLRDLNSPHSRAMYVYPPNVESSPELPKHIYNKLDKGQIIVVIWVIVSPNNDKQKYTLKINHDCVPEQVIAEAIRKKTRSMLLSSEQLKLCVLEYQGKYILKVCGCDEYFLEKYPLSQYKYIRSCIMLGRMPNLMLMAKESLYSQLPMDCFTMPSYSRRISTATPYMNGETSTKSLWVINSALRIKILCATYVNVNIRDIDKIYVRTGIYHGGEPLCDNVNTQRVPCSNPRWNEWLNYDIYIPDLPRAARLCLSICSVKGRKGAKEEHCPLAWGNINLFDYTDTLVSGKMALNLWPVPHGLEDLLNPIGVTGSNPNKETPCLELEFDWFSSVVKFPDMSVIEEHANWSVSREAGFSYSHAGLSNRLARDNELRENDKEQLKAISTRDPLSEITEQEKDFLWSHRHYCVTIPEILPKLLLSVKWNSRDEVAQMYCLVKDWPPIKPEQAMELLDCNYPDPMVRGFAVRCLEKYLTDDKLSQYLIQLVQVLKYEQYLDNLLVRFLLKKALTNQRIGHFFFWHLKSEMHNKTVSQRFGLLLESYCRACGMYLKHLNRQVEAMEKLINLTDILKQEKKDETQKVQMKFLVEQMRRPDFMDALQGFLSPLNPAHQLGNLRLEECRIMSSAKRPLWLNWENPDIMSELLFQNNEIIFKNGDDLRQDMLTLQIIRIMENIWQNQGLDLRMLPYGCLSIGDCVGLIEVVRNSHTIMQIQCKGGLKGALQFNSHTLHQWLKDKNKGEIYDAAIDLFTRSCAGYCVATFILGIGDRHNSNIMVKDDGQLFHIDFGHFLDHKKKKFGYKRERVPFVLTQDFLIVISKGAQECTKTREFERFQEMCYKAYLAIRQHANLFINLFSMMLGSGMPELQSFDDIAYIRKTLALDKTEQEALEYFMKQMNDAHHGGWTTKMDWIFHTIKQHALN
CYP3A4, sequence (P08684 whole entry): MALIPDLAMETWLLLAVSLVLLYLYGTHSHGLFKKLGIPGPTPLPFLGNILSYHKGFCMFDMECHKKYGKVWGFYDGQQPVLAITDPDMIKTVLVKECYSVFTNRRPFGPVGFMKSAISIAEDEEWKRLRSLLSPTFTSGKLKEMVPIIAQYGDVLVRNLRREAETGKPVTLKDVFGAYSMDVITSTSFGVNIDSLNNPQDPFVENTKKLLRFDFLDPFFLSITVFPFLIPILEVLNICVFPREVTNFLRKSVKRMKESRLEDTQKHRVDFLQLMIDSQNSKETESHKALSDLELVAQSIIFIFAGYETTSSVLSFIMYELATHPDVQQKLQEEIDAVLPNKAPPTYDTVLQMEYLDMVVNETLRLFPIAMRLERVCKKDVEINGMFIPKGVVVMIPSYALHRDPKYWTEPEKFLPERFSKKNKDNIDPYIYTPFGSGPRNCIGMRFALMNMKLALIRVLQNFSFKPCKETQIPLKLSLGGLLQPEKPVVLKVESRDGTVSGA
P110γ, sequence (P48736 whole entry): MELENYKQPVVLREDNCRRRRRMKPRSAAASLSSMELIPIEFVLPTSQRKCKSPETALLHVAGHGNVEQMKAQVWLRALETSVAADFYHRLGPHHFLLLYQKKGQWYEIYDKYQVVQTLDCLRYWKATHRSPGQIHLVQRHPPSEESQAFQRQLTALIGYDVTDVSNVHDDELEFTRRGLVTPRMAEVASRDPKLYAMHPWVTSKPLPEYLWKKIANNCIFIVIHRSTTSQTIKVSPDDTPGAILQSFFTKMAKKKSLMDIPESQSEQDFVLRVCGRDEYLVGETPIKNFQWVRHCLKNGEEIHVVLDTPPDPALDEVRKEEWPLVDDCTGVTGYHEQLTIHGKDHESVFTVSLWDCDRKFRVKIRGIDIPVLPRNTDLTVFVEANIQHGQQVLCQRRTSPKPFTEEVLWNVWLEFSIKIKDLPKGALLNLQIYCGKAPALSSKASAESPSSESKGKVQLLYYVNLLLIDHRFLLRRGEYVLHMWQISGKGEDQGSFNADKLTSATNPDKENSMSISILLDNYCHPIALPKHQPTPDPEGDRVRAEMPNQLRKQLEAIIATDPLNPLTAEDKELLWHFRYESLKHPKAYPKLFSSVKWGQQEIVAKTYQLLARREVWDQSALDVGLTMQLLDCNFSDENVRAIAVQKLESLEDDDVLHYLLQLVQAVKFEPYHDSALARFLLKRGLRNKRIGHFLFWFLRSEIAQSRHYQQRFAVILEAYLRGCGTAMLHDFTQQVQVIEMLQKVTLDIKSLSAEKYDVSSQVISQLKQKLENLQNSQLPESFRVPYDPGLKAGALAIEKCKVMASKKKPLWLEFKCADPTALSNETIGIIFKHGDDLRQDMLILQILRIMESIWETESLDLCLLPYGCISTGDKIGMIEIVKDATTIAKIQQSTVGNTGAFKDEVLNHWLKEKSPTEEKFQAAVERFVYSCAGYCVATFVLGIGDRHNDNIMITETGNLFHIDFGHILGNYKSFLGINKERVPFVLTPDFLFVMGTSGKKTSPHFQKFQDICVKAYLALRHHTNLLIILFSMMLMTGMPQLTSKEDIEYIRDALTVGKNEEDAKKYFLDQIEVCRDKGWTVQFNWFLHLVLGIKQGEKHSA

A word on the inhibition: it is the share of the control response that was lost under treatment. A low value points to a weak effect. Turning to `CN1CCC(NC(=O)c2ccc(-c3ccc(-n4c(=O)ccc5cnc6ccc(-c7cnc8ccccc8c7)cc6c54)cc3C(F)(F)F)cc2)CC1` [Compound 10], the Ambit score in data set [1] was determined as 0%; in data set [2], 2%; in data set [5], 0.05%; in data set [6] it was 0.1%; in [8], 0.65%. For the same molecule, the “blocked phosphorylation of S6K (T389)” value in data set [3] is listed as 80–90%. Also, the “blocked phosphorylation of pAkt (S473)” value in [3] is 80–90%. For the same molecule, the inhibition at 10 µM in [4] is more than 60%; in data set [7] it was more than 50%. For the same molecule, the CYP2D6 % inhibition in [7] (10 µM) turned out to be 51%.

Turning to `Cc1cc(-n2c(=O)ccc3cnc4ccc(-c5cnc6ccccc6c5)cc4c32)ccc1-c1ccc(C(=O)NC2CCN(C)CC2)cc1` [Compound 19], testing at 10 µM in data set [7] gave an inhibition of 24%.

In the case of `CCC(=O)N1CCN(c2ccc(-n3c(=O)ccc4cnc5ccc(-c6cnc7ccccc7c6)cc5c43)cc2C(F)(F)F)CC1` [Torin1], in data set [9], the protein kinase off-targets result was “no other significant protein kinase off-targets”. Further, in [10], the anti-tumor activity result was “exhibited anti-tumor activity”.
